Reference: patent US12421206B2, “Aryl-n-aryl derivatives for treating a RNA virus infection” (ABIVAX, priority 2018, dated 2025)

system: RSV A2; experiment: RSV inhibition (cytopathic effect inhibition) using Viral ToxGlo assay in HEp-2 cells; format: cell-based; conditions: human respiratory syncytial virus, RSV A2, MOI 0.5, HEp-2 cells, 72 h p.i.
Procedure: Protocol for Screening Antiviral Compounds for RSV Inhibition and Cytotoxicity Using Viral ToxGlo Assay
HEp-2 cells were maintained in Eagle's minimum essential medium (EMEM) with Earle's BSS adjusted to contain 2 mM L-glutamine, 10% fetal bovine serum, 100 U/ml penicillin and 100 μg/ml streptomycin. For the purposes of the screening assay they were grown to 90% confluency, trypsinized and recovered. The trypsin was neutralised with cell culture media and cells were centrifuged at 150×g for 5 minutes before discarding the supernatant and resuspending cell pellet in assay media (EMEM with Earle's BSS adjusted to contain 2 mM L-glutamine, 2% fetal bovine serum and 100 U/ml penicillin and 100 μg/ml streptomycin). The cells were seeded into white clear-bottomed cell culture plates at a density of 1.5×10^4 cells/well in 50 μl and 4×10^3 cells/well in 25 μl for 96 well plates and 384 well plates respectively. For the media/background control column assay media only was added. Cell plates were placed in a humid chamber and incubated overnight at 37° C./5% CO2. After overnight incubation cells were checked for confluency and healthy appearance.
Test articles were made up at 10× test concentration in a maximum DMSO concentration of 10% (final assay concentration maximal 1% DMSO) and added to the cell plates in volumes of 10 μl for 96 well plates and 5 μl for 384 well plates. For cell control and virus control wells the test article solvent only was added. Virus or assay media for cytotoxicity test wells and media/cell control wells was added immediately after test articles at an MOI of 0.5, 40 or 20 μl for 96 and 384 well plates respectively. Virus suspension was prepared by thawing RSV A2 frozen stocks and diluting to the required concentration of plaque forming units in assay media on ice.
Cell plates were further incubated inside a humid chamber for 72 h p.i at 37° C./5% CO2. After the incubation period cells were observed under the microscope to check for characteristic cytopathic effect in virus control wells and healthy cells in the cell control wells. After plates were adjusted to room temperature 20/40 μl Viral ToxGlo (Promega) was added to each well of the 384/96 well cell plates. Plates were incubated at room temperature, protected from light on a plate rocker for 20 minutes before measuring the luminescence on a spectrophotometer (Biotek Synergy HTX).
RSV inhibition was calculated as percentage of cytopathic effect inhibition relative to the virus control and cytotoxicity as percentage of cell survival relative to cell control wells. This allowed EC50 values to be calculated for each test article where a virus inhibition or cytotoxic dose response was identified.

SMILES | EC50
CCCC(C)NC(=O)c1cccc(Nc2ccc(OCc3ccccn3)cc2C)c1 (stereo not drawn) [Compound 77, N-(1-methylbutyl)-3-((2-methyl-4-(pyridin-2-ylmethoxy)phenyl)amino)benzamide] | 124 nM
c1ccc(COc2ccc(Nc3cccc(OC4CCC4)c3)c(C3CC3)c2)nc1 [Compound 137, N-(3-cyclobutoxyphenyl)-2-cyclopropyl-4-[(pyridin-2-yl)methoxy]aniline] | 300 nM
O=C(NCCC1CCCC1)c1cccc(Nc2ccc(OCc3ccncc3)cc2C2CC2)c1 [Compound 89, N-(2-cyclopentylethyl)-3-((2-cyclopropyl-4-(pyridin-4-ylmethoxy)phenyl)amino)benzamide] | 140 nM
c1ccc(COc2ccc(Nc3cccc(OCCCC4CCCCC4)c3)c(C3CC3)c2)nc1 [Compound 83, 3-(3-cyclohexylpropoxy)-N-(2-cyclopropyl-4-(pyridin-2-ylmethoxy)phenyl)aniline] | 9 nM
OC(CCCC1CCCCC1)c1cccc(Nc2ccc(OCc3ccccc3)cc2C2CC2)c1 (stereo not drawn) [Compound 97, 1-(3-{[4-(benzyloxy)-2-cyclopropylphenyl]amino}phenyl)-4-cyclohexylbutan-1-ol] | 10 nM
O=C(NCC1CCCCC1)c1ccccc1Nc1ccc(OCc2ccccc2)cc1C1CC1 [Compound 110, 2-{[4-(benzyloxy)-2-cyclopropylphenyl]amino}-N-(cyclohexylmethyl)benzamide] | 59 nM
O=C(NCCC1CCCCC1)c1cccc(Nc2ccc(OCc3ccccn3)cc2C2CC2)c1 [Compound 76, N-(2-(cyclohexyl)ethyl)-3-((2-cyclopropyl-4-(pyridin-2-ylmethoxy)phenyl)amino)benzamide] | 14 nM
Cc1c(Nc2ccc(OCc3ccccn3)cc2C2CC2)cccc1OP(=O)(O)O [Compound 109, [3-({2-cyclopropyl-4-[(pyridin-2-yl)methoxy]phenyl}amino)-2-methylphenoxy]phosphonic acid] | 48 nM
C1=C(c2cc(OCc3ccccc3)ccc2Nc2cccc(OCCCC3CCCCC3)c2)CCOC1 [Compound 165, 4-(benzyloxy)-N-[3-(3-cyclohexylpropoxy)phenyl]-2-(3,6-dihydro-2H-pyran-4-yl)aniline] | 2360 nM
O=C(NCCC1CCCCC1)Nc1cccc(Nc2ccc(OCc3ccccn3)cc2C2CC2)c1 [Compound 96, 1-(2-cyclohexylethyl)-3-[3-({2-cyclopropyl-4-[(pyridin-2-yl)methoxy]phenyl}amino)phenyl]urea] | 10 nM
c1ccc(COc2ccc(Nc3cccc(OCCCC4CCCCC4)c3)c(N3CCOCC3)c2)cc1 [Compound 114, 4-(benzyloxy)-N-[3-(3-cyclohexylpropoxy)phenyl]-2-(morpholin-4-yl)aniline] | 71 nM
Cc1cc(OCc2cccnn2)ccc1Nc1cccc(OCCCC2CCCCC2)c1 [Compound 148, N-[3-(3-cyclohexylpropoxy)phenyl]-2-methyl-4-[(pyridazin-3-yl)methoxy]aniline] | 532 nM
CC(C)CCNC(=O)c1ccccc1Nc1ccc(OCc2ccccn2)cc1C1CC1 [Compound 123, 2-({2-cyclopropyl-4-[(pyridin-2-yl)methoxy]phenyl}amino)-N-(3-methylbutyl)benzamide] | 120 nM
O=C(CCC1CCCCC1)Nc1cccc(Nc2ccc(OCc3ccc(F)cc3)cc2C(F)(F)F)c1 [Compound 99, 3-cyclohexyl-N-[3-({4-[(4-fluorophenyl)methoxy]-2-(trifluoromethyl)phenyl}amino)phenyl]propanamide] | 13 nM
OCC(O)(CCC1CCCCC1)c1cccc(Nc2ccc(OCc3ccccc3)cc2C2CC2)c1 (stereo not drawn) [Compound 155, 2-(3-{[4-(benzyloxy)-2-cyclopropylphenyl]amino}phenyl)-4-cyclohexylbutane-1,2-diol] | 1030 nM
CC(C)(C)c1cc(OCc2ccccc2)ccc1Nc1cccc(NC(=O)CCC2CCCCC2)c1 [Compound 91, N-(3-{[4-(benzyloxy)-2-tert-butylphenyl]amino}phenyl)-3-cyclohexylpropanamide] | 2 nM
CC(C)CCCOc1cccc(Nc2ccc(OCc3ccccn3)cc2C2CC2)c1 [Compound 106, 2-cyclopropyl-N-{3-[(4-methylpentyl)oxy]phenyl}-4-[(pyridin-2-yl)methoxy]aniline] | 33 nM

SMILES | EC50
Cc1c(NC(=O)C2(C(N)=O)CC2)cccc1Nc1ccc(OCc2ccccn2)cc1C1CC1 [Compound 108, N′1-[3-({2-cyclopropyl-4-[(pyridin-2-yl)methoxy]phenyl}amino)-2-methylphenyl]cyclopropane-1,1-dicarboxamide] | 41 nM
Cc1c(NC(=O)C2(C#N)CC2)cccc1Nc1ccc(OCc2ccccn2)cc1C1CC1 [Compound 102, 1-cyano-N-[3-({2-cyclopropyl-4-[(pyridin-2-yl)methoxy]phenyl}amino)-2-methylphenyl]cyclopropane-1-carboxamide] | 22 nM
O=C(NCCC1CCCC1)c1cccc(Nc2ccc(OCc3ccccc3)cc2C(F)(F)F)c1 [Compound 104, 3-{[4-(benzyloxy)-2-(trifluoromethyl)phenyl]amino}-N-(2-cyclopentylethyl)benzamide] | 29 nM
c1ccc(COc2ccc(Nc3cccc(OCCCC4CCCCC4)c3)c(N3CCC3)c2)cc1 [Compound 131, 2-(azetidin-1-yl)-4-(benzyloxy)-N-[3-(3-cyclohexylpropoxy)phenyl]aniline] | 204 nM
c1ccc(COc2ccc(Nc3cccc(SCCCC4CCCCC4)c3)c(C3CC3)c2)cc1 [Compound 149, 4-(benzyloxy)-N-{3-[(3-cyclohexylpropyl)sulfanyl]phenyl}-2-cyclopropylaniline] | 555 nM
c1ccc(COc2ccc(Nc3cccc(-c4noc(CCC5CCCCC5)n4)c3)c(C3CC3)c2)nc1 [Compound 129, N-{3-[5-(2-cyclohexylethyl)-1,2,4-oxadiazol-3-yl]phenyl}-2-cyclopropyl-4-[(pyridin-2-yl)methoxy]aniline] | 175 nM
Cc1cc(OCc2ccccn2)ccc1Nc1cccc(C(=O)NCCCC(C)C)c1 [Compound 72, 3-((2-methyl-4-(pyridin-2-ylmethoxy)phenyl)amino)-N-(4-methylpentyl)benzamide] | 158 nM
CC(C)Cn1nnc(-c2cccc(Nc3ccc(OCc4ccccn4)cc3C3CC3)c2)n1 [Compound 147, 2-cyclopropyl-N-{3-[2-(2-methylpropyl)-2H-1,2,3,4-tetrazol-5-yl]phenyl}-4-[(pyridin-2-yl)methoxy]aniline] | 414 nM
O=C(NCCC1CCCCC1)c1cccc(Nc2ccc(OCc3cccnc3)cc2C2CC2)c1 [Compound 85, N-(2-cyclohexylethyl)-3-((2-cyclopropyl-4-(pyridin-3-ylmethoxy)phenyl)amino)benzamide] | 8 nM
O=S(=O)(CCCC1CCCCC1)c1ccccc1Nc1ccc(OCc2ccccc2)cc1C1CC1 [Compound 122, 4-(benzyloxy)-N-[2-(3-cyclohexylpropanesulfonyl)phenyl]-2-cyclopropylaniline] | 116 nM
c1ccc(COc2ccc(Nc3cccc(-n4cc(CC5CCCCC5)nn4)c3)c(C3CC3)c2)nc1 [Compound 100, N-{3-[4-(cyclohexylmethyl)-1H-1,2,3-triazol-1-yl]phenyl}-2-cyclopropyl-4-[(pyridin-2-yl)methoxy]aniline] | 16 nM
CC(C)CCc1cn(-c2cccc(Nc3ccc(OCc4ccccn4)cc3C3CC3)c2)nn1 [Compound 112, 2-cyclopropyl-N-{3-[4-(3-methylbutyl)-1H-1,2,3-triazol-1-yl]phenyl}-4-[(pyridin-2-yl)methoxy]aniline] | 67 nM
O=S(=O)(CCCC1CCCCC1)c1cccc(Nc2ccc(OCc3ccccc3)cc2C2CC2)c1 [Compound 142, 4-(benzyloxy)-N-[3-(3-cyclohexylpropanesulfonyl)phenyl]-2-cyclopropylaniline] | 370 nM
O=C(NCCC1CCCCC1)c1cncc(Nc2ccc(OCc3ccccn3)cc2C2CC2)c1 [Compound 88, N-(2-cyclohexylethyl)-5-((2-cyclopropyl-4-(pyridin-2-ylmethoxy)phenyl)amino)nicotinamide] | 461 nM
c1ccc(COc2ccc(Nc3cncc(OCCCC4CCCCC4)c3)c(C3CC3)c2)nc1 [Compound 166, 5-(3-cyclohexylpropoxy)-N-{2-cyclopropyl-4-[(pyridin-2-yl)methoxy]phenyl}pyridin-3-amine] | 2490 nM
O=S(=O)(NCCC1CCCCC1)c1cccc(Nc2ccc(OCc3ccccc3)cc2C(F)(F)F)c1 [Compound 124, 3-{[4-(benzyloxy)-2-(trifluoromethyl)phenyl]amino}-N-(2-cyclohexylethyl)benzene-1-sulfonamide] | 126 nM
